Measured values taken from patent US8497262B2, “Therapeutic pyrazolonaphthyridine derivatives” (Dart NeuroScience (Cayman) Ltd, priority 2007, dated 2013).
pIC50: −log10 of the molar value.

Experiments:
GABAA receptors = assay: Electrophysiology assay (two-electrode voltage clamp, Xenopus oocytes expressing GABAA receptors); assay type: cell-based; details: positive (Pos) or negative (Neg) modulation of GABA EC10 current at a screening concentration of 10 μM; receptor subtype not stated
Experimental: The modulation of GABAA function is determined by changes in current as determined in an electrophysiology assay, as is detailed below.
mRNA was prepared from lyophilized plasmid pellets containing cDNA inserts encoding the specific GABAA receptor subunit. cDNAs encoding the α2, α3, and γ3 subunits were subcloned into pBluescript, SK^−. cDNAs encoding the α1 and α5 subunits were subcloned into prC while cDNA encoding the β2 subunit was subcloned into pcDNA1. The cDNA construct encoding the γ2s subunit is in the pGH19 expression construct. Overnight cultures of transformed DH5a bacterial cells were performed to grow sufficient quantities for maxiprep isolation of the plasmid cDNA. The resulting plasmid cDNA was linearized by digestion with an appropriate restriction enzyme that cleaves distal to the cDNA insert (XbaI for α1,2, β2, and γ3 or NotI for α3,5 and γ2, respectively). Following digestion, plasmid cDNA was treated with proteinase K and extracted with phenol/chloroform/isoamyl alcohol, followed by ethanol precipitation. cDNA quality was assessed by agarose-gel electrophoresis (1.5% agarose gel). Samples were stored at −20° C. until use. In vitro transcription was performed with T7 RNA polymerase. mRNA was then stored at −80° C. until use. Plasmids were linearized with appropriate restriction enzymes before in vitro transcription using the Message Machine kit (Ambion, Austin, Tex.).
GABAA receptor expression in Xenopus oocytes: Following 45 min of 0.15% Tricaine anesthesia, an ovarian section containing the follicular oocytes was removed from the frog through a lateral abdominal incision. Oocytes were immediately placed in a calcium-free solution (NaCl 96 mM, MgCl2 1 mM, KCl 2 mM, Hepes 50 mM, pyruvate 2.5 mM, gentamycin 100 μg/mL, penicillin-streptomycin 50 U/mL, pH 7.4). Following 1.5-2 hour incubation in 0.2% collagenase (type II, Sigma Chemical Co., St. Louis, Mo.) at room temperature, individual Dumont stage V and VI oocytes were transferred to an incubator and maintained overnight in Barth's solution (NaCl 84 mM, NaHCO3 2.4 mM, MgSO4 0.82 mM, KCl 1 mM, Ca(NO3)2 0.33 mM, CaCl2 0.41 mM, Tris/HCl 7.5 mM, pyruvate 2.5 mM, gentamycin 50 μg/mL, penicillin-streptomycin, 100 units/mL, pH 7.4) at 18-20° C. and used for experiments 1-5 days post-injection. Oocytes were injected solution using an electronic microinjector (Drummond, Broomall, Pa.) with […] of RNA containing 0.3-0.5 ng of each subunit RNA in a 1:1:1 ratio. The injected oocytes were used for experiments after 1-5 days of incubation in Barth's solution at 18-20° C.
Measurements of ion currents from oocytes expressing GABAA receptors were performed using a Warner two-electrode voltage-clamp amplifier (Warner Instruments, Inc., Foster City, Calif.) (Park-Chung, M., et al. (1999) Brain Res. 830: 72-87 incorporated herein in its entirety). Microelectrodes were fabricated from borosilicate glass capillaries with a programmed pipette puller (Sutter Instrument Co., CA). Microelectrode resistance was 1-3 MΩ when filled with 3 M KCl. The oocyte recording chamber was continuously perfused with Ringer solution. Oocytes were clamped at a holding potential of −70 mV during data acquisition. The membrane current was filtered at 10 Hz and sampled at 100 Hz. Compounds were applied by a gravity-driven external perfusion system. The working volume of the recording chamber was 30 μL and the rate of the perfusion was approximately 50 μL/sec. Compound application was 10-20 sec followed by a 90 sec wash. Data acquisition and external perfusion was computer controlled by custom-developed software. All experiments were performed at room temperature (22-24° C.). Dose-response data from each oocyte were fitted to the Hill equation by non-linear regression using the equation: IGABA=Emax/(1+(EC50/c)^n^H) Emax is the maximum response, EC50 is the concentration producing 50% of the maximal response, nH is the Hill coefficient and c is the concentration of agonist. […]

[1] = target: GABAA central benzodiazepine receptor; assay: Benzodiazepine binding assay ((3H)-flunitrazepam displacement); details: read-out: BZ binding assay (IC50); rat whole brain (except cerebellum) membranes, 1 nM (3H)-flunitrazepam, 3-concentration dose response curve

EP result (GABAA receptors) | pIC50 [1] | SMILES
Neg | > 6.00 | O=c1c2c[nH]c3ccc(N4CCNCC4)nc3c-2nn1-c1ccccc1 [6a, 2-Phenyl-8-(piperazin-1-yl)-2,5-dihydro-pyrazolo[4,3-c][1,5]naphthyridin-3-one]
Neg | > 6.00 | CN1CCN(c2ccc3[nH]cc4c(=O)n(-c5ccccc5)nc-4c3n2)CC1 [6b, 8-(4-Methyl-piperazin-1-yl)-2-phenyl-2,5-dihydro-pyrazolo[4,3-c]-[1,5]naphthyridin-3-one]
Neg | > 9.00 | O=c1c2c[nH]c3ccc(N4CCOCC4)nc3c-2nn1-c1ccccc1 [6c, 8-Morpholin-4-yl-2-phenyl-2,5-dihydro-pyrazolo[4,3-c][1,5]naphthyridin-3-one]
 | > 9.00 | O=c1c2c[nH]c3ccc(N4CCC(O)CC4)nc3c-2nn1-c1ccccc1 [6d, 8-(4-Hydroxy-piperidin-1-yl)-2-phenyl-2,5-dihydro-pyrazolo[4,3-c][1,5]naphthyridin-3-one]
 | > 6.00 | CC1CN(c2ccc3[nH]cc4c(=O)n(-c5ccccc5)nc-4c3n2)CCN1 (stereo not shown) [6e, 8-(3-Methyl-piperazin-1-yl)-2-phenyl-2,5-dihydro-pyrazolo[4,3-c][1,5]naphthyridin-3-one]
 | > 6.00 | O=c1c2c[nH]c3ccc(N4CCCC(O)C4)nc3c-2nn1-c1ccccc1 (stereo not shown) [6f, 8-(3-Hydroxy-piperidin-1-yl)-2-phenyl-2,5-dihydro-pyrazolo[4,3-c][1,5]naphthyridin-3-one]
 | > 6.00 | O=c1c2c[nH]c3ccc(N4CCN(c5ccc(F)cc5)CC4)nc3c-2nn1-c1ccccc1 [6g, 8-[4-(4-Fluoro-phenyl)-piperazin-1-yl]-2-phenyl-2,5-dihydro-pyrazolo[4,3-c][1,5]naphthyridin-3-one]
 | > 6.00 | O=c1c2c[nH]c3ccc(N4CCCNCC4)nc3c-2nn1-c1ccccc1 [6h, 8-[1,4]-Diazepan-1-yl-2-phenyl-2,5-dihydro-pyrazolo[4,3-c][1,5]naphthyridin-3-one]
 | > 9.00 | O=c1c2c[nH]c3ccc(N4CCCC(CO)C4)nc3c-2nn1-c1ccccc1 (stereo not shown) [6i, 8-(3-Hydroxymethyl-piperidin-1-yl)-2-phenyl-2,5-dihydro-pyrazolo[4,3-c][1,5]naphthyridin-3-one]
 | > 6.00 | O=C1CN(c2ccc3[nH]cc4c(=O)n(-c5ccccc5)nc-4c3n2)CCN1 [6j, 8-(3-Oxo-piperazin-1-yl)-2-phenyl-2,5-dihydro-pyrazolo[4,3-c][1,5]naphthyridin-3-one]
 | > 9.00 | O=c1c2c[nH]c3ccc(N4CCCC4)nc3c-2nn1-c1ccccc1 [6k, 2-Phenyl-8-pyrrolidin-1-yl-2,5-dihydro-pyrazolo[4,3-c][1,5]naphthyridin-3-one]
Pos | > 6.00 | O=c1c2c[nH]c3ccc(N4CCN(c5ccccc5)CC4)nc3c-2nn1-c1ccccc1 [6l, 2-Phenyl-8-(4-phenyl-piperazin-1-yl)-2,5-dihydro-pyrazolo[4,3-c][1,5]naphthyridin-3-one]
Pos | > 6.00 | CC1CN(c2ccc3[nH]cc4c(=O)n(-c5ccccc5)nc-4c3n2)CC(C)O1 (stereo not shown) [6m, 8-(2,6-Dimethyl-morpholin-4-yl)-2-phenyl-2,5-dihydro-pyrazolo[4,3-c][1,5]naphthyridin-3-one]
 | > 6.00 | CN1CCN(c2ccc3[nH]cc4c(=O)n(-c5ccccn5)nc-4c3n2)CC1 [6n, 8-(4-Methyl-piperazin-1-yl)-2-pyridin-2-yl-2,5-dihydro-pyrazolo[4,3-c][1,5]naphthyridin-3-one]
 | > 6.00 | O=c1c2c[nH]c3ccc(N4CCOCC4)nc3c-2nn1-c1ccccn1 [6o, 8-Morpholin-4-yl-2-pyridin-2-yl-2,5-dihydro-pyrazolo[4,3-c][1,5]naphthyridin-3-one]
 | > 6.00 | CN1CCCN(c2ccc3[nH]cc4c(=O)n(-c5ccccn5)nc-4c3n2)CC1 [6p, 8-(4-Methyl-[1,4]diazepan-1-yl)-2-pyridin-2-yl-2,5-dihydro-pyrazolo[4,3-c][1,5]naphthyridin-3-one]
Pos | > 6.00 | CC1CN(c2ccc3[nH]cc4c(=O)n(-c5ccccn5)nc-4c3n2)CCN1 (stereo not shown) [6q, 8-(3-Methyl-piperazin-1-yl)-2-pyridin-2-yl-2,5-dihydro-pyrazolo[4,3-c][1,5]naphthyridin-3-one]
 | > 9.00 | O=c1c2c[nH]c3ccc(N4CCC(O)CC4)nc3c-2nn1-c1ccccn1 [6r]
Pos | > 6.00 | O=c1c2c[nH]c3ccc(N4CCNCC4)nc3c-2nn1-c1ccccn1 [6s, 8-piperazin-1-yl-2-pyridin-2-yl-2,5-dihydro-pyrazolo[4,3-c][1,5]naphthyridin-3-one]
Neg | > 9.00 | COc1ccc(-n2nc3c4nc(N5CCN(C)CC5)ccc4[nH]cc-3c2=O)cc1 [6t, 2-(4-Methoxy-phenyl)-8-(4-methyl-piperazin-1-yl)-2,5-dihydro-pyrazolo[4,3-c][1,5]naphthyridin-3-one]
Neg | < 6.00 | O=c1c2c[nH]c3cc(N4CCNCC4)ncc3c-2nn1-c1ccccc1 [compound 14, 2-Phenyl-7-(piperazin-1-yl)-2,5-dihydro-pyrazolo[4,3-c][1,6]naphthyridin-3-one]
 | < 6.00 | O=c1c2c[nH]c3c(N4CCNCC4)nccc3c-2nn1-c1ccccc1 [compound 17, 2-Phenyl-6-(piperazin-1-yl)-2,5-dihydro-pyrazolo[4,3-c][1,7]naphthyridin-3-one]
